Columns and labels:
HBEGF locus = type: cell-based, human; conditions: HEK293T; dCasX491 fusion, scaffold 174 spacer 34.28; 2 ng/ml diphtheria toxin for 48 hours
human PCSK9 locus [1] = test: RNA-seq: normalized PCSK9 read counts (log2FC) in transfected Huh7 cells; type: cell-based; conditions: mRNA + gRNA scaffold 316 (v1), 6 and 26 days post-transfection, vs untreated naive
Excerpt: (§1) Seeded Huh7 cells were transfected with mRNA encoding a catalytically-active CasX 676, dXR1, or LTRP5-ADD-ZIM3 and a gRNA with scaffold 316 and a spacer targeting the PCSK9 locus. Cells were harvested at 6 and 26 days post-transfection and subsequently lysed and stored in DNA/RNA Shield (Zymo Research). As an additional control, untreated, naïve cells were also harvested. The collected samples were subjected to gDNA/RNA extraction using the Quick-DNA/RNA Miniprep Plus kit (Zymo Research). RNA samples were used for total RNA sequencing (RNA-seq), which was performed by a third-party. Raw FASTQ files were received and processed with FASTQC, and adapters were trimmed using Trim Galore. Transcript expression was then quantified against the hg38 genome using Salmon to generate normalized counts for each gene (transcripts per million, or TPM). Differential expression analysis was performed using DESeq2. Genes with fewer than 10 counts in all samples were omitted from analysis, and all pairwise comparisons (e.g., differential gene expression analyses between untreated and treated conditions at the two individual timepoints) were done with significance thresholds of |log 2FC|>2 and adjusted p-value<0.001.

Huh7 cells = test: RNA-seq: differentially regulated off-target genes in transfected Huh7 cells; type: cell-based, human; conditions: 6 and 26 days, |log2FC|>2 and adjusted p-value<0.001, vs untreated naive
Excerpt: as §1

human PCSK9 locus [2] = test: Secreted PCSK9 by ELISA (normalized to total cell count) in Huh7 cells transfected with mRNA and gRNA; type: cell-based; conditions: paired with LTRP5-ADD-ZIM3 mRNA, Huh7 cells, 6 days post-transfection; for Secreted PCSK9: normalized to total cell count; for Percent reduction in PCSK9 secretion: relative to non-targeting gRNA control; for Average percent reduction in PCSK9 secretion: averaged from the two doses
How it was run: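 Huh7 cells were transfected with CasX or epigenetic-editor mRNA plus PCSK9- or B2M-targeting gRNA (scaffold 316). In one screen, LTRP5-ADD-ZIM3 mRNA:gRNA was given at 50:25 or 25:12.5 ng by Lipofectamine 3000. Secreted PCSK9 was measured by ELISA in supernatant 4-87 days post-transfection and normalized to total cell count.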

PCSK9 protein = test: Western blot of intracellular pro-PCSK9 and processed PCSK9 in transfected HepG2 cells; type: cell-based, human; conditions: CasX 676 mRNA #2 + gRNA, western blot densitometry, two days post-transfection
Description: (§2) To determine whether use of certain PCSK9-targeting spacers would result in potential intracellular PCSK9 retention, ˜50,000 HepG2 cells were seeded per well in a 96-well plate. CasX 676 mRNA #2 was transfected into HepG2 cells with a PCSK9-targeting gRNA using Lipofectamine™. After a media change, the following were harvested two days post-transfection: 1) media supernatant to measure secreted PCSK9 protein levels by ELISA; and 2) transfected cells for western blotting analysis to evaluate intracellular PCSK9 levels. Harvested cells were subjected to whole cell lysate extraction for western blotting analysis. Briefly, extracted protein samples were resolved by SDS-PAGE followed by immunoblotting to analyze levels of pro-PCSK9 and processed PCSK9, which were quantified by densitometry. Secreted PCSK9 levels in the media supernatant were analyzed using the BioLegend® ELISA MAX™ kit following the manufacturer's instructions. Naïve, untreated cells and cells transfected with CasX 676 mRNA #2 only served as two experimental controls.

human PCSK9 locus [3] = test: Secreted PCSK9 by ELISA in HepG2 cells transfected with CasX 676 mRNA #2 and PCSK9-targeting gRNA; type: cell-based; conditions: CasX 676 mRNA #2 + gRNA scaffold 316 (v1), two days post-transfection
Description: In vitro transcription of CasX 676 mRNA #2 (sequence listed in Table 28, below) was performed as described in Example 7, below. Guide RNAs using scaffold 316 and a PCSK9-targeting spacer were synthesized with a v1 modification profile (as discussed in Example 7). Spacers 6.1, 6.8, 6.86, 6.114, 6.197, and 6.203 (sequences listed in Table 24) were assessed for intracellular PCSK9 retention.
as §2, with “Naïve, untreated cells and cells transfected with CasX 676 mRNA #2 only served as two experimental controls.” left out

mouse PCSK9 locus = test: Intracellular PCSK9 staining by flow cytometry in Hepa1-6 cells lipofected with mRNA and gRNA; type: cell-based; conditions: paired with LTRP1-ZIM3 mRNA, through day 25
Description: Seeded Hepa1-6 cells treated with the NATE™ inhibitor were lipofected with 300 ng of mRNA encoding dXR1 or LTRP1-ZIM3 (Table 12) and 150 ng of a PCSK9-targeting gRNA (Table 14). Seven different gRNAs spanning the promoter region of the mouse PCSK9 locus were tested, in addition to a non-targeting sequence complementary to the human PCSK9 gene (Table 14). Cells were harvested at 6, 13, and 25 days after transfection to measure intracellular levels of the PCSK9 protein using an intracellular flow cytometry staining protocol. Briefly, cells were fixed using 4% paraformaldehyde in PBS, permeabilized, and stained using a mouse anti-PCSK9 primary antibody (R&D Systems®), followed by a fluorescent goat anti-mouse IgG secondary antibody (Thermo Fisher®). […] Cell populations were gated using the non-targeting gRNA as a negative control.
Seeded Hepa1-6 cells treated with the NATE™ inhibitor were lipofected with 300 ng of mRNA encoding LTRP1-ZIM3, LTRP5-ZIM3, catalytically-active CasX 491, or dCas9-ZNF10-DNMT3A/3L, and 150 ng of PCSK9-targeting gRNA (Table 14). Intracellular levels of PCSK9 protein were measured at 7, 14, 21, 36, and 71 days post-transfection using an intracellular staining protocol as described earlier for experiment #1.
Transfection of mRNA and gRNA into Hepa1-6 cells and intracellular PCSK9 staining were performed as described in Example 2. Briefly, each well of seeded Hepa1-6 cells was transfected with 300 ng of mRNA encoding LTRP5-ZIM3 or LTRP5-ADD-ZIM3 and 150 ng of PCSK9-targeting gRNA with spacer 27.88 or 27.94. Intracellular levels of PCSK9 protein were measured at various timepoints, up to day 53 post-transfection using an intracellular staining protocol as described earlier in Example 2. A non-targeting gRNA was used as an experimental control.

| Substance | log 2 (fold change) of abundance before and after selection (HBEGF locus) | PCSK9 expression (RNA-seq) (human PCSK9 locus [1]) | number of differentially regulated off-target genes (Huh7 cells) | Secreted PCSK9 (human PCSK9 locus [2]; 25 ng mRNA:12.5 ng gRNA) [ng/mL] | Percent reduction in PCSK9 secretion (human PCSK9 locus [2]; 25 ng mRNA:12.5 ng gRNA) [%] | Secreted PCSK9 (human PCSK9 locus [2]; 50 ng mRNA:25 ng gRNA) [ng/mL] | Percent reduction in PCSK9 secretion (human PCSK9 locus [2]; 50 ng mRNA:25 ng gRNA) [%] | Average percent reduction in PCSK9 secretion (human PCSK9 locus [2]) [%] | intracellular pro-PCSK9 / intracellular protein levels (PCSK9 protein) | reduction in secreted PCSK9 levels compared to cells transfected with CasX 676 mRNA only (human PCSK9 locus [3]) [%] | permanence of PCSK9 silencing by spacer (mouse PCSK9 locus) |
| --- | --- | --- | --- | --- | --- | --- | --- | --- | --- | --- | --- |
| ZIM3: human ZIM3 KRAB repressor domain, SEQ ID NO: 128 [reference compound] | 1.7787 | – | – | – | – | – | – | – | – | – | – |
| AGGGUGUGGGUGCUUGACGC (listed as RNA, chemistry not given here) [spacer 6.154, Promoter] | – | durably repress PCSK9 expression through day 26 | higher number of differentially regulated off-target genes | 24.48 | 65.64 | 6.87 | 91.65 | 78.64 | – | – | – |
| CACUGAAUAGCGCAGCCGCA (listed as RNA, chemistry not given here) [spacer 6.167, Intron 1] | – | durably repress PCSK9 expression through day 26 | higher number of differentially regulated off-target genes | 66.61 | 6.51 | 39.55 | 51.93 | 29.22 | – | – | – |
| standard ZNF10: human ZNF10 KRAB repressor domain, SEQ ID NO: 129 [reference compound] | 1.3637 | – | – | – | – | – | – | – | – | – | – |
| AUGGUAGGCACAAGCUCAGC (listed as RNA, chemistry not given here) [spacer 6.133, Promoter] | – | durably repress PCSK9 expression through day 26 | lowest number of differentially regulated off-target genes | 42.13 | 40.86 | 29.45 | 64.21 | 52.53 | – | – | – |
| GAGGAGGACGGCCUGGCCGA (listed as RNA, chemistry not given here) [spacer 6.1, Exon 1] | – | – | – | 32.86 | 53.88 | 18.21 | 77.86 | 65.87 | did not result in substantially increased pro-PCSK9 levels | ~50 | – |
| CGCUACCUGCCUAAACUUUG (spacer within chemically modified full gRNA with 2'-OMe and phosphorothioate ends, further chemistry not given here) [spacer 27.88, mouse PCSK9] | – | – | – | – | – | – | – | – | – | – | strongest permanence in silencing PCSK9 |

From US12551573B2, “Compositions and methods for the targeting of PCSK9” (Scribe Therapeutics Inc., priority 2022, dated 2026)
